pIC50: −log10 of the molar value.

The species entered for the experiment is Homo sapiens. Description: In vitro inhibition of platelet aggregation using Human platelet-Rich Plasma. The format is functional.

For `NCc1ccc(-c2nc3cc(C(=O)N[C@@H](CC(=O)O)C(=O)NCCc4c[nH]c5ccccc45)ccc3[nH]2)cc1`, the pIC50 was 4.21.

Compound `CCCCOC(=O)N[C@@H](CNC(=O)c1ccc2oc(-c3ccc(C(=N)N)cc3)nc2c1)C(=O)O` gave a negative logarithm of the IC50 (pIC50) of 7.70. This pIC50 lies 3.49 log units higher than the previous one.

Compound `Cc1ccc(S(=O)(=O)N[C@@H](CNC(=O)c2ccc3oc(-c4ccc(C(=N)N)cc4)nc3c2)C(=O)O)cc1` showed a pIC50 of 8.00. Against the preceding compound, the pIC50 is 0.30 log units higher.

Compound `NCc1ccc(Cn2cnc3cc(C(=O)NCCC(=O)O)ccc32)cc1` showed a negative logarithm of the IC50 (pIC50) of 4.08.

In the case of `N=C(N)c1ccc(Cn2cnc3cc(C(=O)NCCC(=O)O)ccc32)cc1`, the pIC50 is 5.17.

`O=C(O)CCNC(=O)c1ccc2c(c1)ncn2CCCC1CCNCC1` had a pIC50 of 4.80. This pIC50 lies 0.37 log units lower than the previous one.

The compound `NCc1ccc(-c2nc3cc(C(=O)NCCC(=O)O)ccc3[nH]2)cc1` showed a pIC50 of 4.00. Against the preceding compound, the pIC50 is 0.80 log units lower.

Compound `Cc1nc2cc(C(=O)NCCC(=O)O)ccc2n1Cc1ccc(C(=N)N)cc1` had a pIC50 of 4.96.

The compound `CCCCOC(=O)N[C@@H](CNC(=O)c1ccc2[nH]c(-c3ccc(C(=N)N)cc3)nc2c1)C(=O)O` had a pIC50 of 7.30.

Consider `Cc1ccc(S(=O)(=O)N[C@@H](CNC(=O)c2ccc3nc(-c4ccc(C(=N)N)cc4)oc3c2)C(=O)O)cc1`, for which the pIC50 was 8.00.

For `CCCCOC(=O)N[C@@H](CNC(=O)c1ccc2nc(-c3ccc(C(=N)N)cc3)oc2c1)C(=O)O`, the negative-log IC50 (pIC50) was 7.70.

`NCc1ccc(-c2nc3cc(C(=O)N[C@@H](CC(=O)O)C(=O)NCCc4ccccc4)ccc3[nH]2)cc1` yielded an Inhibition of 16%.

Usually pIC50 stands for −log10 of the IC50, conventionally taken in molar units. The low end stands for a high IC50, the high end for a low IC50. By Inhibition is commonly meant the share of the control response that was lost under treatment. A lower Inhibition goes with a response near the control.

Source of the values: ChEMBL document CHEMBL1128969, “Design, synthesis and in vitro activities of a series of benzimidazole/benzoxazole glycoprotein IIb/IIIa inhibitors” (Bioorg Med Chem Lett, 1996).
